According to patent publication US20240158446A1, “CYCLIC COMPOUND HAVING SELECTIVE INHIBITORY ACTION ON KRAS OVER HRAS AND NRAS” (CHUGAI SEIYAKU KABUSHIKI KAISHA, priority 2021, published 2024):

Columns and labels:
[1] = target: GDP-bound HRAS wild-type protein (Homo sapiens, UniProt P01112); test: Binding to HRAS by surface plasmon resonance (SPR), Single Cycle Kinetics; details: SPR KD ratio HRAS/KRAS, class symbols
[2] = target: GDP-bound NRAS wild-type protein (Homo sapiens, UniProt P01111); test: Binding to NRAS by surface plasmon resonance (SPR), Single Cycle Kinetics; details: SPR KD ratio NRAS/KRAS, class symbols
[3] = target: GDP-bound KRAS wild-type protein (Homo sapiens, UniProt P01116); test: Binding to KRAS by surface plasmon resonance (SPR), Single Cycle Kinetics; details: SPR Single Cycle Kinetics, GDP-bound KRAS wild-type protein, 1:1 binding model; read-out: KRAS KD
Sequence of GDP-bound KRAS wild-type protein (P01116 whole entry): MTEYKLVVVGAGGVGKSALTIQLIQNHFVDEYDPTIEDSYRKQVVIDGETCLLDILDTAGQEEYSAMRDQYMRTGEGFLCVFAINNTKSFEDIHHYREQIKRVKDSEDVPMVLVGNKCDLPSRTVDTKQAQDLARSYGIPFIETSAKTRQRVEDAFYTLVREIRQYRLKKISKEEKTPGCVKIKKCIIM

Sequence of GDP-bound NRAS wild-type protein (P01111 whole entry): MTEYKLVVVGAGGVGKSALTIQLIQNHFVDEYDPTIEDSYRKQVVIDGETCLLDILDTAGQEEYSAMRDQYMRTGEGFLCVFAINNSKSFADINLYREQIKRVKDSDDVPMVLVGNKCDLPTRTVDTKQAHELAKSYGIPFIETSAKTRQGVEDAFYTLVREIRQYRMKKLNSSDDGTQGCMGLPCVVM
Sequence of GDP-bound HRAS wild-type protein (P01112 whole entry): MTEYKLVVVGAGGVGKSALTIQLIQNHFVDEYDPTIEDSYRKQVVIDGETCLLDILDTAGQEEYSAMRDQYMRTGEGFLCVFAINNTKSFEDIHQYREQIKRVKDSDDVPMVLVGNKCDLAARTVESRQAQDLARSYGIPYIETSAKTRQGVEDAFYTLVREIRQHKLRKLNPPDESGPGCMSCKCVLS

Kd [3] [nM] | Compound | HRAS/KRAS (ratio of KD value with respect to GDP-bound HRAS wild-type protein to KD value with respect to KRAS) [1] | NRAS/KRAS (ratio of KD value with respect to GDP-bound NRAS wild-type protein to KD value with respect to KRAS) [2]
0.28 | CCC[C@H]1C(=O)N[C@@H]([C@@H](C)CC)C(=O)N(C)CC(=O)N(C)[C@H]2C/C=C\CCN(C2=O)[C@@H](Cc2ccc(C(F)(F)F)cc2)C(=O)N(C)CC(=O)N[C@@H](CCc2ccc3sc(F)c(C)c3c2)C(=O)N2C[C@H](OCC)C[C@H]2C(=O)NC2(CC(C)(C)C2)C(=O)N(C)[C@@H](C(CC)CC)C(=O)N(C)[C@H](C(=O)N(C)C)CC(=O)N1C [PP2892] | A (a compound having 10 or more and less than 20 is denoted as A) | A (a compound having 10 or more and less than 20 is denoted as A)
2 | CCC[C@H]1C(=O)N[C@@H]([C@@H](C)CC)C(=O)N(C)CC(=O)N(C)[C@H]2C/C=C\CCN(C2=O)[C@@H](Cc2ccc(C(F)(F)F)cc2)C(=O)N(C)CC(=O)N[C@@H](CCc2ccc3c(C)c(C)n(C)c3c2)C(=O)N2C[C@H](OCC)C[C@H]2C(=O)NC2(CC(C)(C)C2)C(=O)N(C)[C@@H](C2CCCC2)C(=O)N(C)[C@H](C(=O)N(C)C)CC(=O)N1C [PP2893] | A (a compound having 10 or more and less than 20 is denoted as A) | A (a compound having 10 or more and less than 20 is denoted as A)
0.31 | CCC[C@H]1C(=O)N[C@@H]([C@@H](C)CC)C(=O)N(C)CC(=O)N(C)[C@H]2C/C=C\CCN(C2=O)[C@@H](Cc2ccc(C)cc2)C(=O)N(C)CC(=O)N[C@@H](CCc2ccc3sc(F)c(C)c3c2)C(=O)N2C[C@H](OCC)C[C@H]2C(=O)NC2(CC(C)(C)C2)C(=O)N(C)[C@@H](C(CC)CC)C(=O)N(C)[C@H](C(=O)N(C)C)CC(=O)N1C [PP2894] | A (a compound having 10 or more and less than 20 is denoted as A) | AA (a compound having 20 or more is denoted as AA)
3.2 | CCC[C@H]1C(=O)N[C@@H]([C@@H](C)CC)C(=O)N(C)CC(=O)N(C)[C@H]2C/C=C\CCN(C2=O)[C@@H](Cc2ccc(C)cc2)C(=O)N(C)CC(=O)N[C@@H](CCc2ccc3c(C)c(C)n(C)c3c2)C(=O)N2C[C@H](OCC)C[C@H]2C(=O)NC2(CC(C)(C)C2)C(=O)N(C)[C@@H](C2CCCC2)C(=O)N(C)[C@H](C(=O)N(C)C)CC(=O)N1C [PP2895] | A (a compound having 10 or more and less than 20 is denoted as A) | A (a compound having 10 or more and less than 20 is denoted as A)
0.56 | CCC[C@H]1C(=O)N[C@@H]([C@@H](C)CC)C(=O)N(C)CC(=O)N(C)[C@H]2C/C=C\CCN(C2=O)[C@@H](Cc2ccc(C(F)(F)F)cc2)C(=O)N(C)CC(=O)N[C@@H](CCc2ccc3c(C)cn(C)c3c2)C(=O)N2C[C@H](OCC)C[C@H]2C(=O)NC2(CC(C)(C)C2)C(=O)N(C)[C@@H](C2CCCC2)C(=O)N(C)[C@H](C(=O)N(C)C)CC(=O)N1C [PP2897] | B (a compound having 3 or more and less than 10 is denoted as B) | A (a compound having 10 or more and less than 20 is denoted as A)
4.8 | CCC[C@H]1C(=O)N[C@@H]([C@@H](C)CC)C(=O)N(C)CC(=O)N(C)[C@H]2C/C=C\CCN(C2=O)[C@@H](Cc2ccc(C)cc2)C(=O)N(C)CC(=O)N[C@@H](CCc2cc(Cl)c3c(ccn3C)c2)C(=O)N2C[C@H](OCC)C[C@H]2C(=O)NC2(CC(C)(C)C2)C(=O)N(C)[C@@H](C(CC)CC)C(=O)N(C)[C@H](C(=O)N(C)C)CC(=O)N1C [PP2898] | A (a compound having 10 or more and less than 20 is denoted as A) | A (a compound having 10 or more and less than 20 is denoted as A)
0.85 | CCC[C@H]1C(=O)N[C@@H]([C@@H](C)CC)C(=O)N(C)CC(=O)N(C)[C@H]2C/C=C\CCN(C2=O)[C@@H](Cc2ccc(C)cc2)C(=O)N(C)CC(=O)N[C@@H](CCc2ccc3c(C)cn(C)c3c2)C(=O)N2C[C@H](OCC)C[C@H]2C(=O)NC2(CC(C)(C)C2)C(=O)N(C)[C@@H](C2CCCC2)C(=O)N(C)[C@H](C(=O)N(C)C)CC(=O)N1C [PP2899] | B (a compound having 3 or more and less than 10 is denoted as B) | A (a compound having 10 or more and less than 20 is denoted as A)
0.44 | CCC[C@H]1C(=O)N[C@@H]([C@@H](C)CC)C(=O)N(C)CC(=O)N(C)[C@H]2C/C=C\CCN(C2=O)[C@@H](Cc2ccc(C(F)(F)F)cc2)C(=O)N(C)CC(=O)N[C@@H](CCc2ccc3sc(C)c(C)c3c2)C(=O)N2C[C@H](OCC)C[C@H]2C(=O)NC2(CC(C)(C)C2)C(=O)N(C)[C@@H](C(CC)CC)C(=O)N(C)[C@H](C(=O)N(C)C)CC(=O)N1C [PP2900] | A (a compound having 10 or more and less than 20 is denoted as A) | AA (a compound having 20 or more is denoted as AA)
3.1 | CCC[C@H]1C(=O)N[C@@H]([C@@H](C)CC)C(=O)N(C)CC(=O)N(C)[C@H]2C/C=C\CCN(C2=O)[C@@H](Cc2ccc(C(F)(F)F)cc2)C(=O)N(C)CC(=O)N[C@@H](CCc2ccc3ccn(C)c3c2)C(=O)N2C[C@H](OCC)C[C@H]2C(=O)NC2(CC(C)(C)C2)C(=O)N(C)[C@@H](C2CCCC2)C(=O)N(C)[C@H](C(=O)N(C)C)CC(=O)N1C [PP2901] | A (a compound having 10 or more and less than 20 is denoted as A) | A (a compound having 10 or more and less than 20 is denoted as A)
0.71 | CCC[C@H]1C(=O)N[C@@H]([C@@H](C)CC)C(=O)N(C)CC(=O)N(C)[C@H]2C/C=C\CCN(C2=O)[C@@H](Cc2ccc(C)cc2)C(=O)N(C)CC(=O)N[C@@H](CCc2ccc3sc(C)c(C)c3c2)C(=O)N2C[C@H](OCC)C[C@H]2C(=O)NC2(CC(C)(C)C2)C(=O)N(C)[C@@H](C(CC)CC)C(=O)N(C)[C@H](C(=O)N(C)C)CC(=O)N1C [PP2902] | A (a compound having 10 or more and less than 20 is denoted as A) | AA (a compound having 20 or more is denoted as AA)
0.24 | C#CC[C@H]1C(=O)N[C@@H]([C@@H](C)CC)C(=O)N(C)CC(=O)N(C)[C@H]2C/C=C\CCN(C2=O)[C@@H](Cc2ccc(C(F)(F)F)cc2)C(=O)N(C)CC(=O)N[C@@H](CCc2ccc(C(F)(F)F)c(OC)c2)C(=O)N2CCOC[C@H]2C(=O)NC2(CC(C)(C)C2)C(=O)N(C)[C@@H](C2CCCC2)C(=O)N(C)[C@H](C(=O)N(C)C)CC(=O)N1C [PP2905] | A (a compound having 10 or more and less than 20 is denoted as A) | AA (a compound having 20 or more is denoted as AA)
0.23 | CC[C@H](C)[C@@H]1NC(=O)[C@H](COC)N(C)C(=O)C[C@@H](C(=O)N(C)C)N(C)C(=O)[C@H](C2CCCC2)N(C)C(=O)C2(CC(C)(C)C2)NC(=O)[C@@H]2CCCCN2C(=O)[C@H](CCc2cc(F)c(C(F)(F)F)c(F)c2)NC(=O)CN(C)C(=O)[C@H](Cc2ccc(C(F)(F)F)cc2)N2CC/C=C\C[C@@H](C2=O)N(C)C(=O)CN(C)C1=O [PP2907] | A (a compound having 10 or more and less than 20 is denoted as A) | AA (a compound having 20 or more is denoted as AA)
1.5 | CCC[C@H]1C(=O)N[C@@H]([C@@H](C)CC)C(=O)N(C)CC(=O)N(C)[C@H]2C/C=C\CCN(C2=O)[C@@H](Cc2ccc(C(F)(F)F)cc2)C(=O)N(C)CC(=O)N[C@@H](CCc2ccc3c(C)cn(C)c3c2)C(=O)N2C[C@H](OCC)C[C@H]2C(=O)NC2(CC(C)(C)C2)C(=O)N(C)[C@@H](C(CC)CC)C(=O)N(C)[C@H](C(=O)N(C)C)CC(=O)N1C [PP2908] | A (a compound having 10 or more and less than 20 is denoted as A) | AA (a compound having 20 or more is denoted as AA)
1 | C#CC[C@H]1C(=O)N[C@@H]([C@@H](C)CC)C(=O)N(C)CC(=O)N(C)[C@H]2C/C=C\CCN(C2=O)[C@@H](Cc2ccc(C(F)(F)F)cc2)C(=O)N(C)CC(=O)N[C@@H](CCc2ccc(C(F)(F)F)c(OC)c2)C(=O)N2CC[C@H]2C(=O)NC2(CC(C)(C)C2)C(=O)N(C)[C@@H](C2CCCC2)C(=O)N(C)[C@H](C(=O)N(C)C)CC(=O)N1C [PP2909] | B (a compound having 3 or more and less than 10 is denoted as B) | B (a compound having 3 or more and less than 10 is denoted as B)
0.52 | C#CC[C@H]1C(=O)N[C@@H]([C@@H](C)CC)C(=O)N(C)CC(=O)N(C)[C@H]2C/C=C\CCN(C2=O)[C@@H](Cc2ccc(C(F)(F)F)cc2)C(=O)N(C)CC(=O)N[C@@H](CCc2ccc(C(F)(F)F)c(OC)c2)C(=O)N2CC[C@H]2C(=O)NC2(CCC2)C(=O)N(C)[C@@H](C2CCCC2)C(=O)N(C)[C@H](C(=O)N(C)C)CC(=O)N1C [PP2911] | B (a compound having 3 or more and less than 10 is denoted as B) | A (a compound having 10 or more and less than 20 is denoted as A)
